In ChEMBL document CHEMBL1909046, “DrugMatrix in vitro pharmacology data” one finds IC50 and Ki data, which are given here for eight compounds.

For orientation: IC50 means the concentration that gives 50% inhibition. As usually defined, the Ki is the dissociation constant of the complex between target and ligand, obtained from inhibition or displacement.

The structures appear in SMILES notation.

Assay [1] has as its target Prostaglandin G/H synthase 1 (Homo sapiens, UniProt P23219). Description: biochemical. In kind it is tissue-based, Platelet. To be noted: platelet.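 Also: inhibition of COX-1 enzyme activity, with arachidonic acid supplied as substrate; in other assays of this panel Not Active means under 50% inhibition at 10 µM.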
Assay [2] has as its target Mitogen-activated protein kinase 1 (Homo sapiens, UniProt P28482). Nature of the assay: DRUGMATRIX: Protein Serine/Threonine Kinase, ERK2 enzyme inhibition (substrate: Myelin Basic Protein). Also on record: species or system Escherichia coli. The following applies: Not Active = under 50% inhibition at 10 µM.
A further assay addresses Acetylcholinesterase (Homo sapiens, UniProt P22303). Nature of the assay: DRUGMATRIX: Acetylcholinesterase enzyme inhibition (substrate: acetylthiocholine). The assay is classed as cell-based, HEK293. The following applies: Not Active = under 50% inhibition at 10 µM.
The next assay concerns the target T1, B2 bradykinin receptor (Homo sapiens, UniProt P30411). Also: in other assays of this panel Not Active means under 50% inhibition at 10 µM.
T1 sequence (P30411 whole entry): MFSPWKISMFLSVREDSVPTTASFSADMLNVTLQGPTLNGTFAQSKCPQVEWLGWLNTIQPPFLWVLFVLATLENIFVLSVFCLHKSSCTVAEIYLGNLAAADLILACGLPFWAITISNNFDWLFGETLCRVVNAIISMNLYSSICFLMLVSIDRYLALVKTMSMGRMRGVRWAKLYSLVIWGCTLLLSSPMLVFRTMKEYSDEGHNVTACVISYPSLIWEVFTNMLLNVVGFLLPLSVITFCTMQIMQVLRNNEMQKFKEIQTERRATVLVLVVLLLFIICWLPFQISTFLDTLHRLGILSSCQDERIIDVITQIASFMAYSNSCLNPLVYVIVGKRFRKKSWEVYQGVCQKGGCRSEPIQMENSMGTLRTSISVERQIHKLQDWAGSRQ
The assay is classed as cell membranes, Membrane. The following applies: chem-1.

Assay [3] has as its target Matrix metalloproteinase-9 (Homo sapiens, UniProt P14780). In kind it is cell-based.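 Also: inhibition of isolated MMP-9 enzyme activity toward a synthetic peptide substrate, from the DrugMatrix protease screening panel; in other assays of this panel Not Active means under 50% inhibition at 10 µM.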
Assay [4] is described as follows: DRUGMATRIX: Sigma2 radioligand binding (ligand: [3H] Ifenprodil). The assay is classed as cell membranes, Rattus norvegicus, Wistar, Brain, Membrane. To be noted: Not Active = under 50% inhibition at 10 µM.
Assay [5] deals with T2, 3-hydroxy-3-methylglutaryl-coenzyme A reductase (Homo sapiens, UniProt P04035).
T2 sequence (P04035 whole entry): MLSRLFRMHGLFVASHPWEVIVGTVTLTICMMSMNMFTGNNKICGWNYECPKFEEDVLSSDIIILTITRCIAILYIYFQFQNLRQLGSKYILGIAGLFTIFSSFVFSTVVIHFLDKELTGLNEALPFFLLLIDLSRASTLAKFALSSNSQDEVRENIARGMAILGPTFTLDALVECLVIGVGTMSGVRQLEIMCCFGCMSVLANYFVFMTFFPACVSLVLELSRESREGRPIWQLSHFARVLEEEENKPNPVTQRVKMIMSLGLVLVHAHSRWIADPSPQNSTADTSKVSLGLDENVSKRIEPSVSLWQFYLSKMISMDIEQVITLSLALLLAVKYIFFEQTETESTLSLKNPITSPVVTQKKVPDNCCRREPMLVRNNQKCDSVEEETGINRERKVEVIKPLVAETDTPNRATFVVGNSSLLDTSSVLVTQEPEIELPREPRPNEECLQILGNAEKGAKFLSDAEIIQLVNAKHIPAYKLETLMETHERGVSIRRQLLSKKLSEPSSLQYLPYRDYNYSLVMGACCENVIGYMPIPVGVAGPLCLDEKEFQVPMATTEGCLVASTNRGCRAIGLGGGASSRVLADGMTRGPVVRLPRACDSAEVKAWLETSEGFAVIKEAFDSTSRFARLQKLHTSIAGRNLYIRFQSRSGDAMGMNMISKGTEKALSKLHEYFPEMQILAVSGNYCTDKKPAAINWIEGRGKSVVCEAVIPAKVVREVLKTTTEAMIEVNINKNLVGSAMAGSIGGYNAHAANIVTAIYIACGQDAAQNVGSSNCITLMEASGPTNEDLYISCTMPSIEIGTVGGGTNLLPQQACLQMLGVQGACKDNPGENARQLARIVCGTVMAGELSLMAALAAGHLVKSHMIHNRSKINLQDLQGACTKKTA
On the set-up: species or system Escherichia coli.

The target of the next assay is Carbonic anhydrase 2 (Homo sapiens, UniProt P00918). Description: DRUGMATRIX: Carbonic Anhydrase II enzyme inhibition (substrate: 4-Nitrophenyl acetate (4-NPA)). The assay is classed as tissue-based, Erythrocyte. To be noted: Not Active = under 50% inhibition at 10 µM.
Assay [6] deals with Kappa-type opioid receptor (Homo sapiens, UniProt P41145). Description: DRUGMATRIX: Opiate kappa (OP2, KOP) radioligand binding (ligand: [3H] Diprenorphine). In kind it is cell membranes, HEK293, Membrane. To be noted: Not Active = under 50% inhibition at 10 µM.
Assay [7] has as its target T3, Muscarinic acetylcholine receptor M4 (Homo sapiens, UniProt P08173). Also: in other assays of this panel Not Active means under 50% inhibition at 10 µM.
T3 sequence (P08173 whole entry): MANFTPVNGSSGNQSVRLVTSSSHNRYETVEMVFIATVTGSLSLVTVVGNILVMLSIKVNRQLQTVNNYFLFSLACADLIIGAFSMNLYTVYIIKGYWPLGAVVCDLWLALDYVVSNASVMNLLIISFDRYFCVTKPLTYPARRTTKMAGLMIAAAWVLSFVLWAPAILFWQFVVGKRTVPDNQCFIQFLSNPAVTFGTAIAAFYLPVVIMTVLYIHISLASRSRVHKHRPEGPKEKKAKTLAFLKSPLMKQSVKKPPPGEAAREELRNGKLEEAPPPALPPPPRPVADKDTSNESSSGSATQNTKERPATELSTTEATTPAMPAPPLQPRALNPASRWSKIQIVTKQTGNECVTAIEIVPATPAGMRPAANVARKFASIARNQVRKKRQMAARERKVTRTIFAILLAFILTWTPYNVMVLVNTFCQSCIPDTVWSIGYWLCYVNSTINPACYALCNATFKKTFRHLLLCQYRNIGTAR
The assay is classed as cell membranes, CHO-K1, Membrane. To be noted: for Ki: read-out: Ki.

The target in another assay is Melanocortin receptor 4 (Homo sapiens, UniProt P32245). The assay is classed as cell membranes, Membrane. To be noted: hek293. Also: in other assays of this panel Not Active means under 50% inhibition at 10 µM.
The target of another assay is T4, Caspase-1 (Homo sapiens, UniProt P29466).
T4 sequence (P29466 whole entry): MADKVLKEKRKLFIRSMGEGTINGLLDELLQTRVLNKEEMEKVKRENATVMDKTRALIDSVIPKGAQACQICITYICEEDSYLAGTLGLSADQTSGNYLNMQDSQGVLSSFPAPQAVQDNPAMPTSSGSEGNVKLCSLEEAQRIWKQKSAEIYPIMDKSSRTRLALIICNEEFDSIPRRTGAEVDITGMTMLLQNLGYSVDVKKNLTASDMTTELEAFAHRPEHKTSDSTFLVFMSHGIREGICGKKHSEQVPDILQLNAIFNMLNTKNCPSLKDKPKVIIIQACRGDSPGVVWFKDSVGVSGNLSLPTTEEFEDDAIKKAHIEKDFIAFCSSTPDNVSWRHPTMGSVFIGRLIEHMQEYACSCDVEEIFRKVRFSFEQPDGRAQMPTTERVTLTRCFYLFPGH
On the set-up: species or system Escherichia coli.

Assay [8] is described as follows: DRUGMATRIX: Potassium Channel [KATP] radioligand binding (ligand: [3H] Glyburide). In kind it is cell membranes, Membrane. To be noted: hit-t15; Not Active = under 50% inhibition at 10 µM.

Kappa-type opioid receptor, sequence (P41145 whole entry): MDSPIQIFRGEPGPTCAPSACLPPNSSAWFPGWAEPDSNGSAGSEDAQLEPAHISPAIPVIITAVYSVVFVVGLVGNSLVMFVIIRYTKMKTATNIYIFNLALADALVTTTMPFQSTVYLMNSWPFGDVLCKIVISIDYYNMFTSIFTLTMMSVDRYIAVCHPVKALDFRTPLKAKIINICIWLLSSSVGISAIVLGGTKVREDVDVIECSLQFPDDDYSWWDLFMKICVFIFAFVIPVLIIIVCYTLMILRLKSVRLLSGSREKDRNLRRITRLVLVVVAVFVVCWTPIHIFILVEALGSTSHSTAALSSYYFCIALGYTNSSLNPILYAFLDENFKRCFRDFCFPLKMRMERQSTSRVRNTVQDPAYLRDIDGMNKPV
Acetylcholinesterase, sequence (P22303 whole entry): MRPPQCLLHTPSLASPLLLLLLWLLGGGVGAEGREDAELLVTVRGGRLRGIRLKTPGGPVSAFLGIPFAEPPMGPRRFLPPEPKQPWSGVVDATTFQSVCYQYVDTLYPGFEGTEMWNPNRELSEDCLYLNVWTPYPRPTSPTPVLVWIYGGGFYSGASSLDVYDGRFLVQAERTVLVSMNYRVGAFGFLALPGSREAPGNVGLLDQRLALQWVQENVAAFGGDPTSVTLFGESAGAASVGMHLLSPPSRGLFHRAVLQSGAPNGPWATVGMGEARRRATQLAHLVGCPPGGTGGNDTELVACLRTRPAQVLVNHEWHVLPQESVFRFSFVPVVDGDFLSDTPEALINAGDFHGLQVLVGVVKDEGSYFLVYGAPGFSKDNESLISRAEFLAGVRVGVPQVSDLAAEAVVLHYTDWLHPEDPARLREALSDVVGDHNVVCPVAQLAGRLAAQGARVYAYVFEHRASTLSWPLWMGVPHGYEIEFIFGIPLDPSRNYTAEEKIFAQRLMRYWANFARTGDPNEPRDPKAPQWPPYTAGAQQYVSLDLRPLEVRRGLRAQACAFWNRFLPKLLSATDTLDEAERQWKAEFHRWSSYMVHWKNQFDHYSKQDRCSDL
Melanocortin receptor 4, sequence (P32245 whole entry): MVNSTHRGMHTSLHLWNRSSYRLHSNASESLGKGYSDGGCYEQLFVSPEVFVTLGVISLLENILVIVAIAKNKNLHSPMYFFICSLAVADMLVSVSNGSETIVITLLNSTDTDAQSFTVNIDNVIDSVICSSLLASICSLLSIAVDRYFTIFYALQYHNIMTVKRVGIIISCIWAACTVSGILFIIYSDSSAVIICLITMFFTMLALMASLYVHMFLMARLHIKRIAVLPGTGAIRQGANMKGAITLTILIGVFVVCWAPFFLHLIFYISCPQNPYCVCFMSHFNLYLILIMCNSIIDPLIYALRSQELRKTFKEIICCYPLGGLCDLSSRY
Prostaglandin G/H synthase 1, sequence (P23219 whole entry): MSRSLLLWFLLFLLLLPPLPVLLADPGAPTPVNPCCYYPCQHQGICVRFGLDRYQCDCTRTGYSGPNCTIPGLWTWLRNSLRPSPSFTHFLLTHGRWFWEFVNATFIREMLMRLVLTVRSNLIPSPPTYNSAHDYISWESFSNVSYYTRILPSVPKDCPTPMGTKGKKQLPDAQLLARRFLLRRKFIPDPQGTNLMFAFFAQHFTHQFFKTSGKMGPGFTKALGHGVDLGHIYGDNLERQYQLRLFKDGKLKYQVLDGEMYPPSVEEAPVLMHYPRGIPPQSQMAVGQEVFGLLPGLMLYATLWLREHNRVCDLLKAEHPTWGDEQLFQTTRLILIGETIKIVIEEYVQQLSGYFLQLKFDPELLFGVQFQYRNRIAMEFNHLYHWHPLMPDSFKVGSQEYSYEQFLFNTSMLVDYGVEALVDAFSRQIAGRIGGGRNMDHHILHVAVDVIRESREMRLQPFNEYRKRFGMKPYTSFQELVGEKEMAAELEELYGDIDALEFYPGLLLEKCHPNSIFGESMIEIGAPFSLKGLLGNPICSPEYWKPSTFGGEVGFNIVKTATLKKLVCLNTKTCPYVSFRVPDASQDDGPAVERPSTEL
Mitogen-activated protein kinase 1, sequence (P28482 whole entry): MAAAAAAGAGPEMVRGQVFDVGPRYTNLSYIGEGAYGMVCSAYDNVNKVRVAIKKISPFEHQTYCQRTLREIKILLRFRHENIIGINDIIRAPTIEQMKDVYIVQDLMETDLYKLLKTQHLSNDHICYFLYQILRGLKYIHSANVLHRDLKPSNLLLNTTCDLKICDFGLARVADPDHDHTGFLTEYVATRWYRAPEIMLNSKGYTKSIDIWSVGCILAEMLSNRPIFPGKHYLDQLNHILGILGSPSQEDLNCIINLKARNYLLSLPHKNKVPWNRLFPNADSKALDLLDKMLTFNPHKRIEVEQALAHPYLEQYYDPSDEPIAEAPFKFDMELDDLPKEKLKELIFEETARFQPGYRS
Matrix metalloproteinase-9, sequence (P14780 whole entry): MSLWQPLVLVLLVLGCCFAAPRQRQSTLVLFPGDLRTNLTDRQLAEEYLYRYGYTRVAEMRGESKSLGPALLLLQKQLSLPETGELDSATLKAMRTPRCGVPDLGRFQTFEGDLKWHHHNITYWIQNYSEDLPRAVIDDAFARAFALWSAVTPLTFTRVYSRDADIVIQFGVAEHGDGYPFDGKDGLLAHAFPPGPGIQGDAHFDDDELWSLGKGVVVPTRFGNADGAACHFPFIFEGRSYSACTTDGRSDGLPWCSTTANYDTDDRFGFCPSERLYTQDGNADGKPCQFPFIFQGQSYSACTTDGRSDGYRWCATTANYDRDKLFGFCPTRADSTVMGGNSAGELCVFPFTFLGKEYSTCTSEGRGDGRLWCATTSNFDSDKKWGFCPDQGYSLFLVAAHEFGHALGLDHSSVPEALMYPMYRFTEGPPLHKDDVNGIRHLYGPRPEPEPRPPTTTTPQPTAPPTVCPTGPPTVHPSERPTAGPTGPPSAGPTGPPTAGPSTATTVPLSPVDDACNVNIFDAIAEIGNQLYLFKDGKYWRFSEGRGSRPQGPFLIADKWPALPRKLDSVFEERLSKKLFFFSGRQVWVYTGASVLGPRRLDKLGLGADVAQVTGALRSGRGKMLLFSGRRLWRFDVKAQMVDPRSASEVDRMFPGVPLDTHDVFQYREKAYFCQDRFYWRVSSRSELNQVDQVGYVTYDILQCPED

In the case of `CC(C)(C)NC(=O)[C@@H]1CN(Cc2cccnc2)CCN1C[C@@H](O)C[C@@H](Cc1ccccc1)C(=O)N[C@H]1c2ccccc2C[C@H]1O.O`, the half-inhibitory concentration (IC50) result (in assay [1]; in assay [2]; at Acetylcholinesterase (hek293); on B2 bradykinin receptor; in [3]; in [4]) was “Not Active” throughout. Moreover, the IC50 entry (in assay [5]; against Carbonic anhydrase 2 (erythrocyte); in assay [6] (hek293); in assay [7] (cho-k1); on Melanocortin receptor 4; against Caspase-1) was “Not Active” each time. For the same compound, the IC50 entry in assay [8] is “Not Active”. Besides, the Ki result in assay [4] and in [8] was “Not Active” in each case.

For `CN(C)CCCN1c2ccccc2CCc2ccc(Cl)cc21` [CLOMIPRAMINE], the IC50 result (in assay [1]; in assay [2]; against Acetylcholinesterase (hek293); against B2 bradykinin receptor; in assay [3]; in assay [5]) was “Not Active” each time. The IC50 result against Carbonic anhydrase 2 (erythrocyte) is “Not Active”; in assay [6] (hek293) it was “Not Active”; in assay [7] (read-out: IC50), 91 nM; against Melanocortin receptor 4, “Not Active”; against Caspase-1, “Not Active”. Besides, the Ki in assay [7] came to 13 nM.

Turning to `Clc1ccccc1C(c1ccccc1)(c1ccccc1)n1ccnc1` [CLOTRIMAZOLE], the IC50 result in [1] was “Not Active”; in assay [2] it was “Not Active”; at Acetylcholinesterase (read-out: IC50) it was 19400 nM; against B2 bradykinin receptor, “Not Active”; in assay [3], “Not Active”; in assay [5], “Not Active”. For the same compound, the IC50 is 30100 nM on Carbonic anhydrase 2 (read-out: IC50), 6300 nM in [6] (read-out: IC50), “Not Active” against Melanocortin receptor 4 and “Not Active” at Caspase-1. In addition, the Ki in [6] stood at 2520 nM; in [7], 1640 nM.

For the compound `O=C(CCCN1CCC(O)(c2ccc(Cl)cc2)CC1)c1ccc(F)cc1` [HALOPERIDOL], the IC50 result (in [1]; in assay [2]; on Acetylcholinesterase (hek293); at B2 bradykinin receptor; in [3]; in assay [5]) was “Not Active” each time. Further, the IC50 result (against Carbonic anhydrase 2 (erythrocyte); in [6] (hek293); in assay [7] (cho-k1); at Melanocortin receptor 4; against Caspase-1) was “Not Active” in each case.

Turning to `NCCCC[C@H](N[C@@H](CCc1ccccc1)C(=O)O)C(=O)N1CCC[C@H]1C(=O)O` [LISINOPRIL ANHYDROUS], the IC50 entry (in assay [1]; in [2]; on Acetylcholinesterase (hek293); on B2 bradykinin receptor; in assay [3]; in assay [4]) was “Not Active” throughout. Further, the IC50 entry (in assay [5]; against Carbonic anhydrase 2 (erythrocyte); in assay [6] (hek293); in assay [7] (cho-k1); against Melanocortin receptor 4; on Caspase-1) was “Not Active” throughout. Moreover, the Ki entry in [4] was “Not Active”.

As to `CN1CCN2c3ccccc3Cc3ccccc3C2C1` (stereo not given) [MIANSERIN], the IC50 entry (in [1]; in assay [2]; on Acetylcholinesterase (hek293); on B2 bradykinin receptor; in [3]; in [5]) was “Not Active” each time. Moreover, the IC50 result against Carbonic anhydrase 2 (erythrocyte) is “Not Active”; in assay [6] (hek293), “Not Active”; in [7] (read-out: IC50) it was 2070 nM; against Melanocortin receptor 4, “Not Active”; at Caspase-1 it was “Not Active”. For the same compound, the Ki in assay [7] came to 288 nM.

With `CC(C)(O)c1ccccc1CC[C@@H](SCC1(CC(=O)O)CC1)c1cccc(/C=C/c2ccc3ccc(Cl)cc3n2)c1` [MONTELUKAST], the IC50 entry (in assay [1]; in assay [2]; against Acetylcholinesterase (hek293); on B2 bradykinin receptor; in assay [3]; in [5]) was “Not Active” each time. The IC50 entry (against Carbonic anhydrase 2 (erythrocyte); in [6] (hek293); in assay [7] (cho-k1); against Melanocortin receptor 4; against Caspase-1) was “Not Active” throughout.

As for `Nc1ccc(S(N)(=O)=O)cc1` [SULFANILAMIDE], the IC50 result (in assay [1]; in assay [2]; against Acetylcholinesterase (hek293); on B2 bradykinin receptor; in assay [3]; in [4]) was “Not Active” each time. In addition, the IC50 result (in assay [5]; in [6] (hek293); in assay [7] (cho-k1); at Melanocortin receptor 4; against Caspase-1; in [8]) was “Not Active” each time. Moreover, the Ki entry in assay [4] and in assay [8] was “Not Active” in each case.
